Test results published in ChEMBL document CHEMBL1136126, “Development of 3D-QSAR models in cyclic ureidobenzenesulfonamides: human beta3-adrenergic receptor agonist” (Bioorg Med Chem Lett, 2003).

Experiments:
[1] = molecular target: T1, Beta-3 adrenergic receptor (Homo sapiens, UniProt P13945); assay: (§1) In vitro effective concentration against beta-3 adrenergic receptor.
[2] = molecular target: T1, Beta-3 adrenergic receptor; assay: as §1; remark: listed apart in the source

T1 sequence (P13945 whole entry): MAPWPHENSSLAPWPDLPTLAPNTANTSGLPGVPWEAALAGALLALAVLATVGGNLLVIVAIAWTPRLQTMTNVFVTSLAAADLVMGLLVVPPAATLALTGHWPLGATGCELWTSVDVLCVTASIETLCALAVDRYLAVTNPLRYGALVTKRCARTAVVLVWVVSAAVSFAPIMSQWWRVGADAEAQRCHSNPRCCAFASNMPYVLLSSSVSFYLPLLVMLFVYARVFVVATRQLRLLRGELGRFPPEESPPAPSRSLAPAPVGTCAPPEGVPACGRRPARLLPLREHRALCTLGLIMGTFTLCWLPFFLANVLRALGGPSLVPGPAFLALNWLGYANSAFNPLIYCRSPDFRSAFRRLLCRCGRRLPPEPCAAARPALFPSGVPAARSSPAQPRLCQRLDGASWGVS

For `CCCCCCCCN1CNN(c2ccc(S(=O)(=O)Nc3ccc(CCNC[C@H](O)c4cccnc4)cc3)cc2)C1=O`, the EC50 [1] was 5.37 nM and the EC50 [2] was 5.4 nM.

For `CCCCCCN1CC(=O)N(c2ccc(S(=O)(=O)Nc3ccc(CCNC[C@H](O)c4cccnc4)cc3)cc2)C1=O`, the EC50 [1] was 275 nM.

For `CCCCCCCCN1NCN(c2ccc(S(=O)(=O)Nc3ccc(CCNC[C@H](O)c4cccnc4)cc3)cc2)C1=O`, the EC50 [1] was 15.1 nM and the EC50 [2] was 15 nM.
